Data published in patent US20220170119A1, “Signaling Pathway of Cannabidiol (CBD) for Prevention and Treatment of COVID-19” (Hemix Biotech Limited, priority 2020, published 2022).

Legend:
Covid-19 = details: human, in vivo; cited from earlier work
ATF5 [1] = experiment: ATF5 expression in Caco2 cells by immunofluorescence staining (FIG. 11); type: cell-based, human; details: 5 μM CBD (FIG. 11)
Description: (§1) Referring to FIG. 11, we have further analyzed the mechanism of CBD treatment on Caco-2 cells by comparing the expression level of TRIB3 and AFT5 in Caco2 cells by the CBD treatment. Compared to FIG. 10, we have measured the expression of TRIB3 and AFT5 by immunofluorescence staining.

TRIB3 [2] = experiment: RNA sequencing of TRIB3 expression in Lamin A 609 MEFs; type: cell-based, mouse; details: premature aging Lamin A 609 MEFs, CBD treatment
Procedure: (§2) RNA sequencing is carried out wherein the RNA samples were extracted using TRIzol and kept in 75% ethanol in diethylpyrocarbonate (DEPC) water at −20° C. For each condition, two biological replicates were prepared for RNA sequencing. The RNA samples were dissolved in DEPC water and carried out quality control analysis. The RNA quantitation was done using Nanodrop™ and Agilent® 2100 Bioanalyzer. The RNA integrity was measured using Agilent® 2100 Bioanalyzer. The RNA purity was measured using agarose gel electrophoresis and Agilent® 2100 Bioanalyzer.
(§3) The samples that had concentration over 50 ng/μl for volume over 20 μl, RIN value over 6.3, and OD260/280 value over 2.0 were considered to pass the quality control analysis and were used for RNA sequencing. Illumina sequencing system was used for paired-end reads of read lengths PE150. 6 GB of raw data was acquired from each sample. […]
(§4) In the step of RNA sequencing, the RNA samples were extracted using TRIzol and kept in 75% ethanol in diethylpyrocarbonate (DEPC) water at −20° C. […] The RNA quantitation was done using Nanodrop™ and Agilent® 2100 Bioanalyzer. The RNA integrity was measured using Agilent® 2100 Bioanalyzer. The RNA purity was measured using agarose gel electrophoresis and Agilent® 2100 Bioanalyzer. […]

TRIB3 [3] = experiment: TRIB3 expression level in Caco-2 cells (FIG. 10); type: cell-based, human; details: Caco2 cells, CBD treatment (FIG. 10)
Description: (§5) Referring to FIG. 10, we have further analyzed the mechanism of CBD treatment on Caco-2 cells by comparing the expression level of TRIB3 and AFT5 in Caco-2 cells by the CBD treatment. […] Similarly, ATF5 was also identified by the RNA sequencing results and it is closely associated with TRIB3.

nCoV virus = experiment: nCoV infection of Huh7 cells, qPCR of viral gene copy number; type: cell-based
Procedure: (§6) To examine CBD inhibitory effects on nCoV infection, Huh7 cells were chosen. 2.0×10^5 cells/well of Huh7 cells were seeded to 24-well plate. The Huh7 cells were treated with DMSO as control, 2.5 μM, 5 μM or 10 μM CBD for 1 hour. The Huh7 cells were then infected with 0.01 MOI of nCoV virus for 1 hour. The inoculum was discarded and the plate was washed with 1 mL PBS twice. The Huh7 cells were then cultured in DMEM/F-12 and treated with DMSO as control, 2.5 μM, 5 μM or 10 μM CBD. After 2, 24 and 48 hours after infection, the supernatant and cell lysate were collected for qPCR analysis for determination of viral gene copy number.
as §6, with “In the step of examining CBD” for “To examine CBD”, “nCoV infection in” for “nCoV infection,”, “Huh7 cells,” for “Huh7 cells were chosen.”

Lamin A 609 MEFs = experiment: Proliferation rate (population doubling level) of Lamin A 609 MEFs; type: cell-based, mouse
Procedure: (§7) In the step of determining cells' proliferation rate and the optimal concentration of molecules, the primary mouse embryonic fibroblasts (MEFs) at passage 3 were counted by using LUNA-II Automated Cell Counter. 1.0×10^5 cells were seeded to a well of 6-well plate. The cells were treated with DMSO as control, 10 μM or 50 μM CBD.
(§8) Referring to FIG. 2, after 4-day and 8-day treatment, the cells were counted again using automated cell counter. The population doubling level (PDL), which reflects the proliferation rate of cells, was calculated by the formula: n=3.32 (log UCY−log I)+X, where n=the PDL number, UCY=the cell yield at that time point, I=the initial cell number, and X=the doubling level of the cells used to initiate the subculture being quantitated.

LMNA^G609G/G609G mice = experiment: CBD treatment in LMNA G609G/G609G mice (health span); type: in vivo, mouse; details: IP twice a week
Procedure: CBD was dissolved in 5% DMSO and 5% polyethylene glycol (PEG) in sterile saline and stored at −80° C. for up to 1 month. 2 months old LMNA^G609G/G609G mice were selected used. The mice then received an intraperitoneal injection (IP) twice a week until they reached the humane point.
In step of CBD treating in mice, 2 months old LMNA^G609G/G609G mice were selected and used. They received an intraperitoneal injection (IP) twice a week until they reached the humane point. Different dosages were used for the injection; 50 mg/kg of CBD was identified as the optimal dosage with the greatest extend in health span of the treated mice. CBD was dissolved in 5% DMSO and 5% polyethylene glycol (PEG) in sterile saline and stored at −80° C. for up to 1 month.

lung fibrosis = experiment: Masson Trichrome staining of Covid-19 infected golden hamster lung; type: in vivo; details: lung of Covid-19 infected golden hamster, compared to control
Description: Referring to FIG. 14, we have further tested CBD's anti-COVID-19 effects by analysis of Masson Trichrome staining of Covid-19 infected golden hamster lung treated with control or CBD.

TRIB3 [4] = experiment: RNA sequencing of TRIB3 expression in wild type MEFs; type: cell-based, mouse; details: wild type MEFs receiving CBD treatment
Procedure: as §2, §3, §4

SARS-CoV-2 = experiment: qPCR of viral gene copy in SARS-CoV-2 infected golden hamster; type: in vivo
Description: Referring to FIG. 12, we tested the CBD's anti-COVID-19 effects in nasal turbinate of golden hamster by qPCR analysis of viral gene copy in nasal turbinate of SARS-CoV-2 infected golden hamster upon CBD treatment.

Caco-2 cells = experiment: Proliferation rate (PDL) of Caco-2 cells; type: cell-based, human; details: 5 μM CBD
Procedure: Referring to FIG. 8, which shown the proliferation rate of Caco-2 cells with CBD treatment. We have compared the population doubling level (PDL) of Caco-2 cells with CBD treatment at four different concentration, namely, 0 μM CBD, 5 μM CBD, 10 μM CBD, and 20 μM CBD. […] Therefore, the COVID-19 virus suppression effect observed in FIG. 7 was not caused by toxicity of CBD.

SARS-Cov-2 pseudovirus = experiment: Luciferase assay of SARS-Cov-2 pseudovirus infection of Caco2 cells; type: cell-based
TRIB3 [5] = experiment: TRIB3 expression in Caco2 cells by immunofluorescence staining (FIG. 11); type: cell-based, human; details: 5 μM CBD (FIG. 11)
Description: as §1

ATF5 [6] = experiment: ATF5 expression level in Caco-2 cells (FIG. 10); type: cell-based, human; details: Caco2 cells, CBD treatment (FIG. 10)
Description: as §5

Caco2 cells = experiment: KI67 expression in Caco2 cells; type: cell-based, human; details: 5 μM CBD
Procedure: Referring to FIG. 9, to confirm that the COVID-19 virus suppression effect observed in FIG. 7 was not caused by toxicity of CBD, we have analyzed the expression of KI67 with CBD treatment at the concentration of 5 μM CBD. […] It is confirmed that the COVID-19 virus suppression effect observed in FIG. 7 was not caused by toxicity of CBD.

wild type MEFs = experiment: Proliferation rate (population doubling level) of wild type MEFs; type: cell-based, mouse
Procedure: as §7, §8

## Ivermectin
Covid-19
  efficacy in treating COVID-19: not conclusive

## C=C(C)[C@@H]1CCC(C)=C[C@H]1c1c(O)cc(CCCCC)cc1O [CBD, Cannabidiol]
ATF5 [1]
  ATF5 level of expression, immunofluorescence staining: increased
TRIB3 [2]
  expression levels of TRIB3 (RNA sequencing): increase
TRIB3 [3]
  expression level of TRIB3: significantly upregulate
nCoV virus; Huh7 cells, 2.5, 5 or 10 μM CBD, 0.01 MOI, 2, 24 and 48 hours after infection
  nCoV virus infection (viral gene copy number in cell lysate and supernatant): inhibited
nCoV virus; Huh7 cells, inhibition of nCoV infection
  optimal dosage of CBD: 5 µM
Lamin A 609 MEFs; high dosage 50 μM CBD
  population doubling level (PDL): significantly decreased
Lamin A 609 MEFs; optimal dosage 10 μM CBD
  population doubling level (PDL): significantly increased
LMNA^G609G/G609G mice
  optimal dosage with the greatest extend in health span: 50 mg/kg
Lung fibrosis
  area and intensity of blue stain (fibrosis), Masson Trichrome staining: significantly lowered
TRIB3 [4]
  TRIB3 expression (fpkm, RNA sequencing): upregulated
SARS-CoV-2; lung
  SARS-Cov-2 infection (viral gene copy) in lung: suppress
SARS-CoV-2; nasal turbinate
  SARS-CoV-2 infection (viral gene copy) in nasal turbinate: reduced
Caco-2 cells
  proliferation of Caco-2 cells shown by population doubling level (PDL): didn't affect proliferation
SARS-Cov-2 pseudovirus
  reduction of SARS-Cov-2 pseudovirus infection: 72%
TRIB3 [5]
  TRIB3 level of expression, immunofluorescence staining: increased
ATF5 [6]
  expression level of ATF5: significantly upregulate
Caco2 cells
  proliferation of Caco2 cells shown by KI67: didn't affect proliferation
Wild type MEFs; high dosage 50 μM CBD
  population doubling level (PDL): significantly decreased
Wild type MEFs; optimal dosage 10 μM CBD
  population doubling level (PDL): significantly increased

## NC(=O)c1nc(F)c[nH]c1=O [Favipiravir]
Covid-19
  efficacy in treating COVID-19: not conclusive

## Lopinavir-ritonavir
Covid-19
  efficacy in treating COVID-19: not conclusive
